The assay addresses T1, IRAK4 (Homo sapiens, UniProt Q9NWZ3).
T1 sequence (Q9NWZ3 1-460): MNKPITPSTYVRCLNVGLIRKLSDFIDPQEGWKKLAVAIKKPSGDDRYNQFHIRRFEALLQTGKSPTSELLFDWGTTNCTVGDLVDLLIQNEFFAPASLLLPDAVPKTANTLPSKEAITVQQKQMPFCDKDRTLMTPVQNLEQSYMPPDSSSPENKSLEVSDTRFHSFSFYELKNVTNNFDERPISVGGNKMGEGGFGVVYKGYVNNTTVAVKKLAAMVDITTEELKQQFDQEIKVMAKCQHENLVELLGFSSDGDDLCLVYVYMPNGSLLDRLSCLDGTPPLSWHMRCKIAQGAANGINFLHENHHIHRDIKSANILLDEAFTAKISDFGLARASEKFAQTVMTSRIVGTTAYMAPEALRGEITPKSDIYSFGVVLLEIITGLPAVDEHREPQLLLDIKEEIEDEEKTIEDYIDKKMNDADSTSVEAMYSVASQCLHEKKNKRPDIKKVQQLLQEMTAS
Put plainly: 2-hour 10 μM ATP Biochemical Assay (MesoScale Detection format; IRAK4 phosphorylation of biotin labeled IRAK1 activation loop peptide). Particulars: IRAK4 MSD BIOCHEMICAL (10 μM ATP) IC50 (μM), 1 nM IRAK4, 2 hours. As to the method:
The 2-hour 10 μM ATP Biochemical Assay employs a MesoScale Detection (MSD) format.
The activity is quenched with 11 μl of 70 mM EDTA, pH 8.
To detect the phosphorylated biotinylated peptide substrate, 30 μl of the quenched reaction mixture is added to equivalent wells of a 384 well streptavidin coated MesoScale plate (Meso Scale Discovery #L21SA-1). After a 1 hour incubation of the plate for 1 hour at room temperature with gentle mixing, the plate wells are washed 3 times with 50 mM Tris, pH 7.5, 150 mM NaCl, 0.02% Tween-20.
A 25 μl volume of 1:500 anti-P-Threonine Rabbit polyclonal Antibody plus 1:500 Goat-anti-Rabbit Sulfo Tag Antibody (Meso Scale Discovery R32AB-1) in 50 mM Tris, pH 7.5, 150 mM NaCl, 0.02% Tween-20 plus 2% BSA is then added to each well. After a 1-hour incubation of the plate for 1 hour at room temperature with gentle mixing, the plate wells are washed, 3 times with 50 mM Tris, pH 7.5, 150 mM NaCl, 0.02% Tween-20. A 40 μl volume of 2×MSD Read Buffer (Meso Scale Discovery R92TC-1) is added to each well, and the plate is read immediately in an MSD Plate Reader (Meso Scale Discovery).
A word on the IC50: it is the concentration that gives 50% inhibition. `CCOc1cc2nc(C)c(C)n2cc1NC(=O)c1cccc(C(F)(F)F)n1` [Example 58, N-(7-ethoxy-2,3-dimethylimidazo[1,2-a]pyridin-6-yl)-6-(trifluoromethyl)picolinamide] showed an IC50 of 0.11 µM. As for `CCOc1cc2nc(C3CCOCC3)cn2cc1NC(=O)c1ccn(C(C)(C)C)n1` [Example 207, 1-(tert-butyl)-N-(7-ethoxy-2-(tetrahydro-2H-pyran-4-yl)imidazo[1,2-a]pyridin-6-yl)-1H-pyrazole-3-carboxamide], the figure is 0.021 µM; as for `O=C(Nc1cn2cc(C3CC3)nc2cc1OCCN1CCOCC1)c1cccc(C(F)F)n1` [Example 102, N-(2-cyclopropyl-7-(2-morpholinoethoxy)imidazo[1,2-a]pyridin-6-yl)-6-(difluoromethyl)picolinamide], 0.061 µM; as for `C[C@@H](COc1cc2nc(C3CC3)cn2cc1NC(=O)c1cccc(C(F)F)n1)n1ccccc1=O` (single isomer, unassigned) [Example 8], 0.14 µM.

Take `CCOc1cc2nc(C3CCOCC3)cn2cc1NC(=O)c1ccnc(OC)n1` [Example 226, N-(7-ethoxy-2-(tetrahydro-2H-pyran-4-yl)imidazo[1,2-a]pyridin-6-yl)-2-methoxypyrimidine-4-carboxamide]: the IC50 was 0.035 µM.

In turn, `CCOc1cc2nc(CC3CCOC3)cn2cc1NC(=O)c1cn(C)cn1` (stereo not shown) [Example 157, N-(7-ethoxy-2-((tetrahydrofuran-3-yl)methyl)imidazo[1,2-a]pyridin-6-yl)-1-methyl-1H-imidazole-4-carboxamide] registered an IC50 of 2.3 µM. As for `O=C(Nc1cn2cc(C3CCOCC3)nc2cc1OC1CCC1)c1cccc(C(F)F)n1` [Example 176, N-(7-cyclobutoxy-2-(tetrahydro-2H-pyran-4-yl)imidazo[1,2-a]pyridin-6-yl)-6-(difluoromethyl)picolinamide], inhibition was half-maximal at 0.001 µM (IC50). Next, `O=C(Nc1cnc2nc(C3CC3)cn2c1)c1cccc(C(F)(F)F)n1` [Example 92, N-(2-cyclopropylimidazo[1,2-a]pyrimidin-6-yl)-6-(trifluoromethyl)picolinamide]: 0.076 µM. `CCc1cn2cc(NC(=O)c3cccc(C(F)F)n3)cc(F)c2n1` [Example 76, 6-(difluoromethyl)-N-(2-ethyl-8-fluoroimidazo[1,2-a]pyridin-6-yl)picolinamide] registered an IC50 of 0.17 µM. As for `COc1cc(NC(=O)c2cccc(C(F)F)n2)cn2cc(C3CC3(F)F)nc12` (single isomer, unassigned) [Example 513, N-(2-(2,2-difluorocyclopropyl)-8-methoxyimidazo[1,2-a]pyridin-6-yl)-6-(difluoromethyl)picolinamide], the figure is 0.015 µM; as for `O=C(Nc1cc(OCc2ccccc2)c2nc(C3CCOCC3)cn2c1)c1cccc(C(F)(F)F)n1` [Example 103, N-(8-(benzyloxy)-2-(tetrahydro-2H-pyran-4-yl)imidazo[1,2-a]pyridin-6-yl)-6-(trifluoromethyl)picolinamide], 0.023 µM.

Molecule `CCOc1cc2nc(C34CC(C(C)(C)O)(C3)C4)cn2cc1NC(=O)c1cccc(C(F)F)n1` [Example 129, 6-(difluoromethyl)-N-(7-ethoxy-2-(3-(2-hydroxypropan-2-yl)bicyclo[1.1.1]pentan-1-yl)imidazo[1,2-a]pyridin-6-yl)picolinamide] yielded a 50% inhibitory concentration (IC50) of 0.001 µM. Next, `CCOc1cc2nc([C@H]3C[C@H](OC)C3)cn2cc1NC(=O)c1cccc(C(F)F)n1` [Example 114, 6-(difluoromethyl)-N-(7-ethoxy-2-((1r,3r)-3-methoxycyclobutyl)imidazo[1,2-a]pyridin-6-yl)picolinamide]: 0.001 µM; `O=C(Nc1cn2cc(C3CC3)nc2cn1)c1cccc(C(F)F)n1` [Example 31, N-(2-cyclopropylimidazo[1,2-a]pyrazin-6-yl)-6-(difluoromethyl)picolinamide]: 0.089 µM; `CCOc1cc2nc(CC)cn2cc1NC(=O)c1nc(C(F)(F)F)ccc1F` [Example 36, N-(7-ethoxy-2-ethylimidazo[1,2-a]pyridin-6-yl)-3-fluoro-6-(trifluoromethyl)picolinamide]: 0.26 µM. For the molecule `O=C(Nc1cn2cc(C3CC3)nc2cc1O)c1cccc(C(F)F)n1` [Example 10, N-(2-cyclopropyl-7-hydroxyimidazo[1,2-a]pyridin-6-yl)-6-(difluoromethyl)picolinamide], the IC50 amounted to 0.059 µM. Next, `CCOc1cc2nc(C3CC3)cn2cc1NC(=O)c1cc2ncccn2n1` [Example 53, N-(2-cyclopropyl-7-ethoxyimidazo[1,2-a]pyridin-6-yl)pyrazolo[1,5-a]pyrimidine-2-carboxamide]: 0.11 µM; `O=C(Nc1cn2cc(C3CCOCC3)nc2cc1F)c1cccc(C(F)F)n1` [Example 293, 6-(difluoromethyl)-N-(7-fluoro-2-(tetrahydro-2H-pyran-4-yl)imidazo[1,2-a]pyridin-6-yl)picolinamide]: 0.031 µM. Next, `CCOc1cc2nc(CC3CCOC3)cn2cc1NC(=O)c1nc(C)co1` (stereo not shown) [Example 154, N-(7-ethoxy-2-((tetrahydrofuran-3-yl)methyl)imidazo[1,2-a]pyridin-6-yl)-4-methyloxazole-2-carboxamide]: 0.22 µM.

`CCOc1cc2nc(CN3CCOCC3)cn2cc1NC(=O)c1cccc(C(F)F)n1` [Example 121, 6-(difluoromethyl)-N-(7-ethoxy-2-(morpholinomethyl)imidazo[1,2-a]pyridin-6-yl)picolinamide] displayed an IC50 of 2.21 µM. Next, `CCOc1cc2nc3c(n2cc1NC(=O)c1cccc(C(F)(F)F)n1)CNCC3` [Example 64, N-(7-ethoxy-1,2,3,4-tetrahydroimidazo[1,2-a:5,4-c′]dipyridin-8-yl)-6-(trifluoromethyl)picolinamide]: 0.68 µM; `CC(C)Oc1cc2nc(C3CCOCC3)cn2cc1NC(=O)c1cccc(C(F)F)n1` [Example 167, 6-(difluoromethyl)-N-(7-isopropoxy-2-(tetrahydro-2H-pyran-4-yl)imidazo[1,2-a]pyridin-6-yl)picolinamide]: 0.001 µM; `CCOc1cc2nc(CC)cn2cc1NC(=O)c1ccc(C)c(C)n1` [Example 34, N-(7-ethoxy-2-ethylimidazo[1,2-a]pyridin-6-yl)-5,6-dimethylpicolinamide]: 0.023 µM. As for `O=C(Nc1cc(O)c2nc(C3CCOCC3)cn2c1)c1cccc(C(F)(F)F)n1` [Example 104, N-(8-hydroxy-2-(tetrahydro-2H-pyran-4-yl)imidazo[1,2-a]pyridin-6-yl)-6-(trifluoromethyl)picolinamide], the IC50 is 0.13 µM. Next, `CCOc1cc2nc(C3CCN(C)CC3)cn2cc1NC(=O)c1cccc(C(F)(F)F)n1` [Example 67, N-(7-ethoxy-2-(1-methylpiperidin-4-yl)imidazo[1,2-a]pyridin-6-yl)-6-(trifluoromethyl)picolinamide]: 0.001 µM; `O=C(Nc1cc(C2=CCOCC2)c2nc(C3CCOCC3)cn2c1)c1cccc(C(F)(F)F)n1` [Example 107, N-(8-(3,6-dihydro-2H-pyran-4-yl)-2-(tetrahydro-2H-pyran-4-yl)imidazo[1,2-a]pyridin-6-yl)-6-(trifluoromethyl)picolinamide]: 0.084 µM; `COc1cc(NC(=O)c2cccc(C(F)F)n2)cn2cc(C34CC(C#N)(C3)C4)nc12` [Example 511, N-(2-(3-cyanobicyclo[1.1.1]pentan-1-yl)-8-methoxyimidazo[1,2-a]pyridin-6-yl)-6-(difluoromethyl)picolinamide 2,2,2-trifluoroacetate]: 0.004 µM.

`CCOc1cc2nc(CC)cn2cc1NC(=O)c1cc2n(n1)CCC2` [Example 38, N-(7-ethoxy-2-ethylimidazo[1,2-a]pyridin-6-yl)-5,6-dihydro-4H-pyrrolo[1,2-b]pyrazole-2-carboxamide] registered an IC50 of 2.6 µM.

Turning to `O=C(Nc1cn2cc(C3CCOCC3)nc2cn1)c1cnn(C(F)F)c1` [Example 162, 1-(difluoromethyl)-N-(2-(tetrahydro-2H-pyran-4-yl)imidazo[1,2-a]pyrazin-6-yl)-1H-pyrazole-4-carboxamide], the concentration for half-maximal inhibition (IC50) was found to be 0.37 µM.

As to `CCOc1cc2nc(CC)cn2cc1NC(=O)c1nc(C)c(C)s1` [Example 48, N-(7-ethoxy-2-ethylimidazo[1,2-a]pyridin-6-yl)-4,5-dimethylthiazole-2-carboxamide], the IC50 was 2 µM. As for `CC[C@@H]1[C@H](F)C(=O)N[C@@H]1COc1cc2nc(C3CC3)cn2cc1NC(=O)c1cccc(C(F)F)n1` [Example 11, N-(2-cyclopropyl-7-(((2S,3S,4S)-3-ethyl-4-fluoro-5-oxopyrrolidin-2-yl)methoxy)imidazo[1,2-a]pyridin-6-yl)-6-(difluoromethyl)picolinamide], the figure is 0.079 µM.

These data come from patent publication US20220089592A1, “IMIDAZO[1,2-A]PYRIDINYL DERIVATIVES AS IRAK4 INHIBITORS” (priority 2019, published 2022).
